In ChEMBL document CHEMBL1201862, “PubChem BioAssay data set” (2004):
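Cultured in 96-well plates, cells were exposed to test compound for 48 hours across five concentrations. GI50 = concentration required for 50% inhibition of growth.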 The source made the active and inactive calls. Rule as the data show it: active = GI50 up to about 1.1 µM and inactive = higher.

Experiments:
Test in all cases: growth of human tumour cells (NCI), 48 h
OVCAR-5 = tested on: OVCAR-5
PC-3 = tested on: PC-3
786-0 = tested on: 786-0
DU-145 = tested on: DU-145
SK-MEL-28 = tested on: SK-MEL-28
UO-31 = tested on: UO-31
HOP-92 = tested on: HOP-92
U-251 = tested on: U-251
T47D = tested on: T47D
OVCAR-3 = tested on: OVCAR-3
SNB-19 = tested on: SNB-19
NCI-H23 = tested on: NCI-H23
LOX IMVI = tested on: LOX IMVI
MCF7 = tested on: MCF7
HOP-62 = tested on: HOP-62
CAKI-1 = tested on: CAKI-1
MOLT-4 = tested on: MOLT-4
EKVX = tested on: EKVX
Malme-3M = tested on: Malme-3M
NCI-H522 = tested on: NCI-H522

SMILES | GI50 (OVCAR-5) | GI50 (PC-3) | GI50 (786-0) | GI50 (DU-145) | GI50 (SK-MEL-28) | GI50 (UO-31) | GI50 (HOP-92) | GI50 (U-251) | GI50 (T47D) | GI50 (OVCAR-3) | GI50 (SNB-19) | GI50 (NCI-H23) | GI50 (LOX IMVI) | GI50 (MCF7) | GI50 (HOP-62) | GI50 (CAKI-1) | GI50 (MOLT-4) | GI50 (EKVX) | GI50 (Malme-3M) | GI50 (NCI-H522)
COc1ccc(C2C3=C(N=C4SC(C(C)=O)=C(C)N42)c2ccccc2CC3)cc1 (centres undefined) | > 100 µM (inactive) | > 100 µM (inactive) | > 100 µM (inactive) | > 100 µM (inactive) | > 100 µM (inactive) | 91.6 µM (inactive) | > 100 µM (inactive) | 57.9 µM (inactive) | 31.8 µM (inactive) | > 100 µM (inactive) | > 100 µM (inactive) | 80 µM (inactive) | 63.8 µM (inactive) | 92.7 µM (inactive) | > 100 µM (inactive) | – | – | – | – | –
CCOC(=O)c1nc2ccc(C(F)(F)F)cc2nc1Oc1ccc(C(=O)OC)cc1 | – | 32.5 µM (inactive) | 66.1 µM (inactive) | 55.7 µM (inactive) | 86.1 µM (inactive) | > 100 µM (inactive) | 43.2 µM (inactive) | 36.1 µM (inactive) | > 100 µM (inactive) | – | 46.8 µM (inactive) | 97.5 µM (inactive) | > 100 µM (inactive) | 43.1 µM (inactive) | 22.5 µM (inactive) | > 100 µM (inactive) | > 100 µM (inactive) | > 100 µM (inactive) | – | –
CN1CN(c2ccccc2)C2(CCN(Cc3nc4ccccc4s3)CC2)C1=O | 17.7 µM (inactive) | 14.2 µM (inactive) | 17.2 µM (inactive) | 17.9 µM (inactive) | 17.3 µM (inactive) | 14.6 µM (inactive) | 15 µM (inactive) | 16.1 µM (inactive) | 16.2 µM (inactive) | 15.7 µM (inactive) | 15 µM (inactive) | 18.1 µM (inactive) | 17.3 µM (inactive) | 15.7 µM (inactive) | 16.6 µM (inactive) | 20.1 µM (inactive) | 15.1 µM (inactive) | 20.9 µM (inactive) | 17.8 µM (inactive) | –
CC1(C)C2CC3C4CC5(Nc6ccccc6C5N41)[C@]3(C)CC2=O (some centres undefined) | > 50 µM (inactive) | > 50 µM (inactive) | > 50 µM (inactive) | > 50 µM (inactive) | > 50 µM (inactive) | > 50 µM (inactive) | 12.5 µM (inactive) | > 50 µM (inactive) | 9.82 µM (inactive) | > 50 µM (inactive) | – | > 50 µM (inactive) | > 50 µM (inactive) | > 50 µM (inactive) | > 50 µM (inactive) | > 50 µM (inactive) | > 50 µM (inactive) | > 50 µM (inactive) | > 50 µM (inactive) | > 50 µM (inactive)
C/C(=N\O)C1CC2C=C(C#N)C1N(Cc1ccccc1)C2 (centres undefined) | > 100 µM (inactive) | > 100 µM (inactive) | > 100 µM (inactive) | > 100 µM (inactive) | > 100 µM (inactive) | > 100 µM (inactive) | > 100 µM (inactive) | 46.3 µM (inactive) | > 100 µM (inactive) | > 100 µM (inactive) | > 100 µM (inactive) | > 100 µM (inactive) | > 100 µM (inactive) | > 100 µM (inactive) | > 100 µM (inactive) | > 100 µM (inactive) | > 100 µM (inactive) | > 100 µM (inactive) | > 100 µM (inactive) | –
O=C(NCCN(CCNC(=O)c1cccc(O)c1O)CCNC(=O)c1cccc(O)c1O)c1cccc(O)c1O [TRENCAM] | 66.2 µM (inactive) | 11.4 µM (inactive) | 5.89 µM (inactive) | 6.98 µM (inactive) | 3.82 µM (inactive) | 14.9 µM (inactive) | 7.53 µM (inactive) | 6.49 µM (inactive) | 9.73 µM (inactive) | 2.69 µM (inactive) | 5.22 µM (inactive) | 11.5 µM (inactive) | 1.22 µM (inactive) | 9.55 µM (inactive) | 6.59 µM (inactive) | 21.9 µM (inactive) | – | 41.4 µM (inactive) | 2.51 µM (inactive) | 0.826 µM (active)
COc1ccc(-c2nc(-c3cnccn3)n(COCCO)n2)cc1 | > 100 µM (inactive) | > 100 µM (inactive) | > 100 µM (inactive) | > 100 µM (inactive) | > 100 µM (inactive) | > 100 µM (inactive) | > 100 µM (inactive) | > 100 µM (inactive) | > 100 µM (inactive) | > 100 µM (inactive) | > 100 µM (inactive) | > 100 µM (inactive) | > 100 µM (inactive) | > 100 µM (inactive) | > 100 µM (inactive) | – | > 100 µM (inactive) | – | – | > 100 µM (inactive)
COC(=O)CCCC1(CCCC(=O)OC)CCCCCCCCC(CCCC(=O)OC)(CCCC(=O)OC)C(=O)C1=O | > 100 µM (inactive) | 21.2 µM (inactive) | 17.1 µM (inactive) | > 100 µM (inactive) | > 100 µM (inactive) | 0.0502 µM (active) | 20.6 µM (inactive) | 18.9 µM (inactive) | 30.1 µM (inactive) | 22.9 µM (inactive) | > 100 µM (inactive) | 18.6 µM (inactive) | 23 µM (inactive) | 85.5 µM (inactive) | 38.5 µM (inactive) | 9.84 µM (inactive) | – | > 100 µM (inactive) | 26.1 µM (inactive) | 2.24 µM (inactive)
CCOP(=O)(C=C=C(C)C)OCC | > 100 µM (inactive) | > 100 µM (inactive) | > 100 µM (inactive) | > 100 µM (inactive) | > 100 µM (inactive) | – | > 100 µM (inactive) | > 100 µM (inactive) | > 100 µM (inactive) | > 100 µM (inactive) | > 100 µM (inactive) | > 100 µM (inactive) | > 100 µM (inactive) | > 100 µM (inactive) | > 100 µM (inactive) | > 100 µM (inactive) | – | > 100 µM (inactive) | > 100 µM (inactive) | 36.4 µM (inactive)
O=C(NCCc1ccccc1)[C@H]1CCCC[C@@H]1CCO | > 100 µM (inactive) | > 100 µM (inactive) | > 100 µM (inactive) | > 100 µM (inactive) | > 100 µM (inactive) | > 100 µM (inactive) | > 100 µM (inactive) | > 100 µM (inactive) | > 100 µM (inactive) | > 100 µM (inactive) | – | > 100 µM (inactive) | > 100 µM (inactive) | > 100 µM (inactive) | > 100 µM (inactive) | > 100 µM (inactive) | > 100 µM (inactive) | > 100 µM (inactive) | – | > 100 µM (inactive)
Cc1ccc2nc(-c3ccc(-c4nc5ccc(C)cc5o4)c(O)c3)oc2c1 | > 100 µM (inactive) | > 100 µM (inactive) | > 100 µM (inactive) | > 100 µM (inactive) | > 100 µM (inactive) | > 100 µM (inactive) | > 100 µM (inactive) | > 100 µM (inactive) | > 100 µM (inactive) | – | > 100 µM (inactive) | > 100 µM (inactive) | > 100 µM (inactive) | > 100 µM (inactive) | > 100 µM (inactive) | – | > 100 µM (inactive) | – | – | –
CC/C(=N\NC(=O)c1cccnc1)c1ccc2c(c1)OCCO2 | > 100 µM (inactive) | > 100 µM (inactive) | > 100 µM (inactive) | > 100 µM (inactive) | > 100 µM (inactive) | > 100 µM (inactive) | – | > 100 µM (inactive) | > 100 µM (inactive) | > 100 µM (inactive) | > 100 µM (inactive) | > 100 µM (inactive) | > 100 µM (inactive) | 66.5 µM (inactive) | > 100 µM (inactive) | > 100 µM (inactive) | > 100 µM (inactive) | 64.1 µM (inactive) | 28.4 µM (inactive) | 29.1 µM (inactive)
COC(=O)c1cccc2c1Oc1ccccc1S2 | 73.8 µM (inactive) | 63.2 µM (inactive) | 42.9 µM (inactive) | > 100 µM (inactive) | 96.8 µM (inactive) | 31.8 µM (inactive) | 25.8 µM (inactive) | 59.6 µM (inactive) | 32.3 µM (inactive) | > 100 µM (inactive) | 41.2 µM (inactive) | – | > 100 µM (inactive) | 37.2 µM (inactive) | > 100 µM (inactive) | 14.5 µM (inactive) | 24.5 µM (inactive) | 39.4 µM (inactive) | – | 27.1 µM (inactive)
O=C(CNCc1ccccc1)Oc1c(Cl)c(Cl)c(Cl)c(Cl)c1Cl | 66.5 µM (inactive) | 22.1 µM (inactive) | 93.1 µM (inactive) | 15.9 µM (inactive) | 38.5 µM (inactive) | 20.6 µM (inactive) | – | 28.5 µM (inactive) | 25.7 µM (inactive) | 22.5 µM (inactive) | 28.6 µM (inactive) | > 100 µM (inactive) | 29.6 µM (inactive) | 38.5 µM (inactive) | 76.7 µM (inactive) | 25.3 µM (inactive) | 22.3 µM (inactive) | 22.4 µM (inactive) | 26 µM (inactive) | 25.3 µM (inactive)
c1ccc2c(c1)Nc1nc3nonc3nc1N2 | > 100 µM (inactive) | > 100 µM (inactive) | > 100 µM (inactive) | > 100 µM (inactive) | > 100 µM (inactive) | > 100 µM (inactive) | > 100 µM (inactive) | > 100 µM (inactive) | > 100 µM (inactive) | – | > 100 µM (inactive) | > 100 µM (inactive) | > 100 µM (inactive) | > 100 µM (inactive) | > 100 µM (inactive) | > 100 µM (inactive) | > 100 µM (inactive) | > 100 µM (inactive) | > 100 µM (inactive) | > 100 µM (inactive)
